This is an account of results in patent US10844057B2, “Process for preparing JAK inhibitors and intermediates thereof” (priority 2018, dated 2020).

Data set [1] concerns TSLP-evoked TARC release in human peripheral blood mononuclear cells. The experiment in a line: Inhibition of TSLP-evoked TARC release in human peripheral blood mononuclear cells. It is filed as cell-based. Particulars: Homo sapiens, PBMC, 48 h, read-out: pIC50 ± st. dev., inhibition of TSLP-evoked TARC release (converted). The source says: Assay 4: Inhibition of TSLP-Evoked TARC Release in Human Peripheral Blood Mononuclear Cells
Thymic stromal lymphopoietin (TSLP) and thymus and activation-regulated chemokine (TARC) are overexpressed in asthmatic airways, and correlate with disease severity. In the lungs, TSLP may be released by bronchial epithelial cells in response to allergens and viral infections. TSLP signals through an IL-7Rα/TSLPR heterodimer found in a broad range of tissues and cell types, including epithelial cells, endothelial cells, neutrophils, macrophages, and mast cells. The binding of TSLP to its receptor induces a conformational change that activates JAK1 and JAK2 to phosphorylate various transcription factors, including STAT3 and STAT5. In immune cells, this triggers a cascade of intracellular events that result in cell proliferation, anti-apoptosis, dendritic cell migration, and production of Th2 cytokines and chemokines. In peripheral blood mononuclear cells (PBMC), TSLP has a proinflammatory effect by activating myeloid dendritic cells to attract and stimulate T cells, a process mediated by the chemoattractant TARC.
The potencies of the test compounds were measured for inhibition of TARC release.
PBMC aliquots (previously isolated from whole blood and frozen in aliquots at −80° C.) from 3 to 5 donors were thawed at 37° C. and added dropwise to 40 mL pre-warmed, sterile-filtered, complete RPMI media in 50 mL Falcon tubes. Cells were pelleted and resuspended in complete media at 2.24×10^6 cells/mL. […] Cells were allowed to rest for 1 hour at 37° C. with 5% CO2.
Compounds were received as 10 mM stock solutions in DMSO. 3.7-fold serial dilutions were performed to generate 9 concentrations of test compound in DMSO at 300× the final assay test concentration. […] 95 μL of 0.2% DMSO in complete media was added to the untreated control wells. Cells were pre-treated with compound for 1 hour at 37° C. with 5% CO2 prior to stimulation.
Immediately prior to use, an aliquot was thawed and prepared at 20× the final assay concentration in complete media. 10 μL of 20×TSLP was added to each well of PBMC, for a final assay concentration of 10 ng/mL. 10 μL of complete media was added to the unstimulated control wells. Cells were stimulated in the presence of compound for 48 hours at 37° C. with 5% CO2.
Following stimulation, the cell culture supernatants were harvested and TARC levels were detected by enzyme-linked immunosorbent assay (ELISA), using Human CCL17/TARC Quantikine ELISA Kit (R&D Systems # DDN00) according to the manufacturer's instructions.
For dose response analysis, the log [test compound (M)] was plotted versus the percent response values for each donor, and IC50 values were determined using a nonlinear regression analysis with GraphPad Prism Software using the 4-parameter sigmoidal dose-response algorithm with variable slope. Data are expressed as mean pIC50 (negative decadic logarithm IC50) values calculated from pIC50 values of individual donors and rounded to one decimal place.

The subject of data set [2] is IL-2 stimulated STAT5 phosphorylation in Tall-1 human T cell line. The experiment in a line: Inhibition of IL-2 stimulated pSTAT5 in Tall-1 T cells. It is filed as cell-based. The procedure: Assay 2: Inhibition of IL-2 Stimulated pSTAT5 in Tall-1 T Cells
The potency of test compounds for inhibition of interleukin-2 (IL-2) stimulated STAT5 phosphorylation was measured in the Tall-1 human T cell line (DSMZ) using AlphaLisa.
Phosphorylated STAT5 was measured via the AlphaLISA SureFire Ultra pSTAT5 (Tyr694/699) kit (PerkinElmer).
Compounds were serially diluted in DMSO and dispensed acoustically to empty wells. Assay media (phenol red-free DMEM (Life Technologies) supplemented with 10% FBS (ATCC)) was dispensed (4 μL/well) and plates shaken at 900 rpm for 10 mins. Cells were seeded at 45,000 cells/well in assay media (4 μL/well), and incubated at 37° C., 5% CO2 for 1 hour, followed by the addition of IL-2 (R&D Systems; final concentration 300 ng/mL) in pre-warmed assay media (4 μL) for 30 minutes. […] The lysate was shaken at 900 rpm for 10 minutes at room temperature (RT). Phosphorylated STAT5 was measured via the pSTAT5 AlphaLisa kit (PerkinElmer). Freshly prepared acceptor bead mixture was dispensed onto lysate (5 μL) under green filtered <100 lux light. Plates were shaken at 900 rpm for 2 mins, briefly spun down, and incubated for 2 hrs at RT in the dark. Donor beads were dispensed (5 μL) under green filtered <100 lux light. Plates were shaken at 900 rpm for 2 minutes, briefly spun down, and incubated overnight at RT in the dark. Luminescence was measured with excitation at 689 nm and emission at 570 nm using an EnVision plate reader (PerkinElmer) under green filtered <100 lux light.
To determine the inhibitory potency of test compounds in response to IL-2, the average emission intensity of beads bound to pSTAT5 was measured in a human T cell line. IC50 values were determined from analysis of the inhibition curves of signal intensity versus compound concentration. Data are expressed as pIC50 (negative decadic logarithm IC50) values (mean±standard deviation).

The next data set concerns the target JAK3 (Homo sapiens (Human), UniProt P52333). The experiment in a line: Biochemical JAK kinase assay (LanthaScreen), JAK3. Particulars: converted from pIC50 using Cheng-Prusoff; ATP 1.6 μM. The procedure: (§1) Assay 1: Biochemical JAK Kinase Assays
(§2) A panel of four LanthaScreen JAK biochemical assays (JAK1, 2, 3 and Tyk2) were carried in a common kinase reaction buffer (50 mM HEPES, pH 7.5, 0.01% Brij-35, 10 mM MgCl2, and 1 mM EGTA). Recombinant GST-tagged JAK enzymes and a GFP-tagged STAT1 peptide substrate were obtained from Life Technologies.
(§3) Serially diluted compounds were pre-incubated with each of the four JAK enzymes and the substrate in white 384-well microplates (Corning) at ambient temperature for 1 h. ATP was subsequently added to initiate the kinase reactions in 10 μL total volume, with 1% DMSO. […] Kinase reactions were allowed to proceed for 1 hour at ambient temperature before a 10 μL preparation of EDTA (10 mM final concentration) and Tb-anti-pSTAT1 (pTyr701) antibody (Life Technologies, 2 nM final concentration) in TR-FRET dilution buffer (Life Technologies) was added. The plates were allowed to incubate at ambient temperature for 1 h before being read on the EnVision reader (Perkin Elmer). Emission ratio signals (520 nm/495 nm) were recorded and utilized to calculate the percent inhibition values based on DMSO and background controls.
(§4) For dose-response analysis, percent inhibition data were plotted vs. compound concentrations, and IC50 values were determined from a 4-parameter robust fit model with the Prism software (GraphPad Software). Results were expressed as pIC50 (negative logarithm of IC50) and subsequently converted to pKi (negative logarithm of dissociation constant, Ki) using the Cheng-Prusoff equation.

The next data set deals with JAK1 (Homo sapiens (Human), UniProt P23458). The experiment in a line: Biochemical JAK kinase assay (LanthaScreen), JAK1. Particulars: converted from pIC50 using Cheng-Prusoff; ATP 25 μM. The procedure: as §1, §2, §3, §4
A further data set deals with JAK2 (Homo sapiens (Human), UniProt O60674). The experiment in a line: Biochemical JAK kinase assay (LanthaScreen), JAK2. Conditions: converted from pIC50 using Cheng-Prusoff; ATP 3 μM. The procedure: as §1, §2, §3, §4
A further data set deals with Tyk2 (Homo sapiens (Human), UniProt P29597). The experiment in a line: Biochemical JAK kinase assay (LanthaScreen), Tyk2. Particulars: converted from pIC50 using Cheng-Prusoff; ATP 10 μM. The procedure: as §1, §2, §3, §4
The nature of data set [3]: Lung and plasma exposure in mice after oral aspiration. It is filed as in vivo. Conditions: mouse, other: oral aspiration, 50 µg/animal; for Kp at 5 h: Balb/c, lung and plasma, lung ng/g to plasma ng/mL, mice, read-out: Lung to Plasma ratio at 5 hr; for concentration at 5 h: Balb/c mice, 1 mg/mL, 50 μL via oral aspiration. The procedure:
Adult Balb/c mice from Harlan were used in the assay. […] Animals were placed in lateral recumbency post dose and monitored for full recovery from anesthesia before being returned to their home cage. Four hours later, animals were once again briefly anesthetized and challenged with either vehicle or IL-13 (0.03 μg total dose delivered, 50 μL total volume) via oral aspiration before being monitored for recovery from anesthesia and returned to their home cage. One hour after vehicle or IL-13 administration, whole blood and lungs were collected for both pSTAT6 detection in lung homogenates using a Perkin Elmer AlphaLISA® SureFire® Ultra™ HVp-STAT6 (Tyr641) assay kit and for total drug concentration analysis in both lung and plasma. Blood samples were centrifuged (Eppendorf centrifuge, 5804R) for 4 minutes at approximately 12,000 rpm at 4° C. to collect plasma. […] Plasma and lung levels of test compound were determined by LC-MS analysis against analytical standards constructed into a standard curve in the test matrix. A lung to plasma ratio was determined as the ratio of the lung concentration in ng/g to the plasma concentration in ng/mL at 5 hours.

Where [4] appears, read: lung, read-out: Lung Concentration (ng/g) at 5 hr.
Setting [5] is: plasma, read-out: Plasma Concentration (ng/mL) at 5 hr.
Where [6] appears, read: IL-2 300 ng/mL, pSTAT5 AlphaLisa, Tall-1 cells, read-out: Tall-1 pIC50 (converted).

Where two headings read alike, the source gives them in different places.

JAK3, sequence (P52333 whole entry): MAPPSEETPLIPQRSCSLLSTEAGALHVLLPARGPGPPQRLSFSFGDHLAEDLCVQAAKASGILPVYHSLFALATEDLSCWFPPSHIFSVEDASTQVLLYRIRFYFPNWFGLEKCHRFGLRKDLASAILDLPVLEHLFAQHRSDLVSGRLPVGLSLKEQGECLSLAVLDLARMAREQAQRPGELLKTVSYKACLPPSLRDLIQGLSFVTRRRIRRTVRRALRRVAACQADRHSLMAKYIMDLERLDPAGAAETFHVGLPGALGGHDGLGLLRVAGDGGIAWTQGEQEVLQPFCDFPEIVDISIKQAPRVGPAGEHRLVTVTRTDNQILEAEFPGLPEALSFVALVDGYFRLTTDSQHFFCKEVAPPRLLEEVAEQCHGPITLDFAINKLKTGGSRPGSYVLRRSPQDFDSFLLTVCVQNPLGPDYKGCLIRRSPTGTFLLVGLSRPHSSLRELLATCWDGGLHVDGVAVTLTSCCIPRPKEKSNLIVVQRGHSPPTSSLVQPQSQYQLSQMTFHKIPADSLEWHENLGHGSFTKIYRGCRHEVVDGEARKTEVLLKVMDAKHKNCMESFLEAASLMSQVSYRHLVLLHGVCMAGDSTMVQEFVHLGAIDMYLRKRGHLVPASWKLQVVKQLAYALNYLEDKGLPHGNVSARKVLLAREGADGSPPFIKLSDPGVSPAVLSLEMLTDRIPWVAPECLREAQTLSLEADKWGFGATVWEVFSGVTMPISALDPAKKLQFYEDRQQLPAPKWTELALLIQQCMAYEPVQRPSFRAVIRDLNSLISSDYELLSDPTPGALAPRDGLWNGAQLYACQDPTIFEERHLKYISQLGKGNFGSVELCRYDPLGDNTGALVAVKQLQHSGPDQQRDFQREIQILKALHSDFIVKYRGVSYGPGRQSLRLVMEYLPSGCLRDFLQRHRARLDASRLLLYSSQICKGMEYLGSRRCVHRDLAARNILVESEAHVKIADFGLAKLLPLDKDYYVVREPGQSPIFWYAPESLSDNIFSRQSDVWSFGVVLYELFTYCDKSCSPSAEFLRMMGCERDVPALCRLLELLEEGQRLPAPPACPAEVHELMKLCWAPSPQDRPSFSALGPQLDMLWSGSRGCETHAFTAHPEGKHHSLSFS
Tyk2, sequence (P29597 whole entry): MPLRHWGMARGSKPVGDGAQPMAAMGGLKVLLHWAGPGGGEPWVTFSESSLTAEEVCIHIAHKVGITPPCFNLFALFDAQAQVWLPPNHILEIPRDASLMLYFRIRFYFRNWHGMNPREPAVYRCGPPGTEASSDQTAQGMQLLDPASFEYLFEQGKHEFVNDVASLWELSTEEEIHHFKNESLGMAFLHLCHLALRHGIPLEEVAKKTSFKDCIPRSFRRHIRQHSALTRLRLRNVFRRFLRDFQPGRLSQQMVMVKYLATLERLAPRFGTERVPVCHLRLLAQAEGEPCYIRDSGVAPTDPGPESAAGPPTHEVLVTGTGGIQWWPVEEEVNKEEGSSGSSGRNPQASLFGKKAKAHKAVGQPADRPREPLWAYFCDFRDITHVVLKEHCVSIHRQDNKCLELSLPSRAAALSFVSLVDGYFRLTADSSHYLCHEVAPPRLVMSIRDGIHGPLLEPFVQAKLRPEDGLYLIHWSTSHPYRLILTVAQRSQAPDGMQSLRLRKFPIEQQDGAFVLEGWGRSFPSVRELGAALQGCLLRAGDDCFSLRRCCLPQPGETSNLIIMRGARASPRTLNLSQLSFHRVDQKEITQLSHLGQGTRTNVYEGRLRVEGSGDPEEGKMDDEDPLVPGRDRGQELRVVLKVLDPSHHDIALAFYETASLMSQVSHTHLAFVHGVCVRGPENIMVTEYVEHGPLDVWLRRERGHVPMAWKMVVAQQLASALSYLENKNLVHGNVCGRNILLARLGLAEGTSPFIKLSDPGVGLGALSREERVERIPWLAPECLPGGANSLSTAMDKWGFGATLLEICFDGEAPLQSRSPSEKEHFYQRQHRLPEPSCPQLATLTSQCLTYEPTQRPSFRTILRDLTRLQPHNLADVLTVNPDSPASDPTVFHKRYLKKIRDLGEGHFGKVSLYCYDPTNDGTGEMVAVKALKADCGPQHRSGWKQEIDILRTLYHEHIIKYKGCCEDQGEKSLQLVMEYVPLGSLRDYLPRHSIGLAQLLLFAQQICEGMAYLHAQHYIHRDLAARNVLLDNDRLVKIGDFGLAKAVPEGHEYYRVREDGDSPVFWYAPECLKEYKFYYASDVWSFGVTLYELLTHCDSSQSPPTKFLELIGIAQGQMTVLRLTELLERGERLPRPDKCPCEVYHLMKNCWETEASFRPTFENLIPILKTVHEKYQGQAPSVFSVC
JAK2, sequence (O60674 whole entry): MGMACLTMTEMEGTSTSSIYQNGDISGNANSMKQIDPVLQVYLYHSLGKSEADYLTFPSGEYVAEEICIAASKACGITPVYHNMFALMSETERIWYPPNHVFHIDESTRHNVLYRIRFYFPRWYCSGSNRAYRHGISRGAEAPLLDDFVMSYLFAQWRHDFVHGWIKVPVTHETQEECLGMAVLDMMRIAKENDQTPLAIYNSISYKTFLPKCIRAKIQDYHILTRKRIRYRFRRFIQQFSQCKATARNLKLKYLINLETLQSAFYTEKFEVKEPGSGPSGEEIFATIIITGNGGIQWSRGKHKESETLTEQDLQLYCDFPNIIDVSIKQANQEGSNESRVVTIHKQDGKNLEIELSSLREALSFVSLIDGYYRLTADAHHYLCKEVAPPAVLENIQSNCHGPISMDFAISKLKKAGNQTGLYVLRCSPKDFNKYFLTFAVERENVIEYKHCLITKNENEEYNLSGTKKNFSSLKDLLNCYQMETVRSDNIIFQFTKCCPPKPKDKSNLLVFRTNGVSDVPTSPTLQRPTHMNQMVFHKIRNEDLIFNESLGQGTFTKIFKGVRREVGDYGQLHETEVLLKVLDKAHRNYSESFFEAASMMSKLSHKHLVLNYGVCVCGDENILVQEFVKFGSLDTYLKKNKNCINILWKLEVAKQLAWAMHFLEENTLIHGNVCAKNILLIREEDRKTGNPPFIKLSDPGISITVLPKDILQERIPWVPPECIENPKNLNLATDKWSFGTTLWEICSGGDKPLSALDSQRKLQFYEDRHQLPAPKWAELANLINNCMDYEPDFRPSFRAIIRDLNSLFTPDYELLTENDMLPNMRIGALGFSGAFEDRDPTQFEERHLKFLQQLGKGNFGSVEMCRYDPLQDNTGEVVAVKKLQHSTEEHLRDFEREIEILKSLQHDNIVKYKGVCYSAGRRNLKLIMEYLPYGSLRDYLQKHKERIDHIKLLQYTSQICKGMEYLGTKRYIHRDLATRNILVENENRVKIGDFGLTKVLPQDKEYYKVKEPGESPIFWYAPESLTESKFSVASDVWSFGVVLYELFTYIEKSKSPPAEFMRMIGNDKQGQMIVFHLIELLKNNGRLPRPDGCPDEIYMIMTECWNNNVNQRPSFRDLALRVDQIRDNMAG
JAK1, sequence (P23458 whole entry): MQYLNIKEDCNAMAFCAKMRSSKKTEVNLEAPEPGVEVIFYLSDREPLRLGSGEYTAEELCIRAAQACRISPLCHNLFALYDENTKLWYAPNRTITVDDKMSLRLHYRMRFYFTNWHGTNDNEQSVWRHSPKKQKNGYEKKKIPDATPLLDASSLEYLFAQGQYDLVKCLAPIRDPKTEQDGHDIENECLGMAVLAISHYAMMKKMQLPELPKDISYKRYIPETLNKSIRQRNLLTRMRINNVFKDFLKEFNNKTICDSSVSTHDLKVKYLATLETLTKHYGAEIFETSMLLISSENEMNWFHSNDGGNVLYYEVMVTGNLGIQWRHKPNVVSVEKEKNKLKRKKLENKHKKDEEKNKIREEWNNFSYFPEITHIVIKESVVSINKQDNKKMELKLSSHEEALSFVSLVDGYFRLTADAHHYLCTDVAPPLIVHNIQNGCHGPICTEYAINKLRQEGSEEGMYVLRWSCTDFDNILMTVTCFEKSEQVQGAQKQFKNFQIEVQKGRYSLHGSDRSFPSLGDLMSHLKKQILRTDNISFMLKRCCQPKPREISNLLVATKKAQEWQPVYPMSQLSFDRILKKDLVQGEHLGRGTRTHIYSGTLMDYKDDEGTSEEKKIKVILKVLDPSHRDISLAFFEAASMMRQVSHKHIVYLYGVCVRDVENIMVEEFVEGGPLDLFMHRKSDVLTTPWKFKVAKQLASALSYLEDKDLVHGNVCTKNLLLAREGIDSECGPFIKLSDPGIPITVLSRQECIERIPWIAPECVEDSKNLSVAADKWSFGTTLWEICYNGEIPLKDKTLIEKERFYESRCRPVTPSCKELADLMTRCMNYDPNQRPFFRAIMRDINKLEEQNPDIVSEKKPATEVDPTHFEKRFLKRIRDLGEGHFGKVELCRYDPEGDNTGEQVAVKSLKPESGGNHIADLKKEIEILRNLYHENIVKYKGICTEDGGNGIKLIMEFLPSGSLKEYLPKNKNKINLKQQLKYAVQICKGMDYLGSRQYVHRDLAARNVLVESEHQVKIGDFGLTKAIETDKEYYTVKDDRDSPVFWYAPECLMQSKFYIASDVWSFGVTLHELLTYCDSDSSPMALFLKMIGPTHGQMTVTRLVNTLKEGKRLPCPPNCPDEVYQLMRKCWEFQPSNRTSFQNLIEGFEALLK

Regarding `CCc1cc(O)ccc1-c1ccc2c(-c3nc4c([nH]3)CN(C(C)C)[C@H](C(=O)N3CCCN(C)CC3)C4)n[nH]c2c1` [Example 4, (S)-(2-(6-(2-ethyl-4-hydroxyphenyl)-1H-indazol-3-yl)-5-isopropyl-4,5,6,7-tetrahydro-3H-imidazo[4,5-c]pyridin-6-yl)(4-methyl-1,4-diazepan-1-yl)methanone], the IC50 in data set [1] is 158 nM; in data set [2] (TALL-1, read-out: Tall-1 pIC50 (converted)), 2.51 nM.
Take `CCCN1Cc2[nH]c(-c3n[nH]c4cc(-c5ccc(O)cc5CC)ccc34)nc2C[C@H]1C(=O)N1CC(C)(N(C)C)C1` [Example 13, (S)-(3-(dimethylamino)-3-methylazetidin-1-yl)(2-(6-(2-ethyl-4-hydroxyphenyl)-1H-indazol-3-yl)-5-propyl-4,5,6,7-tetrahydro-3H-imidazo[4,5-c]pyridin-6-yl)methan One]: on JAK3, the “JAK3 pKi” value is recorded as 9.8. Also, the “JAK1 pKi” value on JAK1 turned out to be 10.3. The “JAK2 pKi” value at JAK2 stood at 10.5. For the same compound, on Tyk2, the “Tyk2 pKi” value is recorded as 9.0. Further, the Kp at 5 h in data set [3] is 330. The concentration at 5 h in data set [3] (setting [4]) worked out at 7460 ± 3080 ng/g; in data set [3] (setting [5]), 23 ± 2.5 ng/mL. For the same compound, the IC50 in data set [2] (setting [6]) was 2.51 nM.
As to `CCc1cc(O)ccc1-c1ccc2c(-c3nc4c([nH]3)CN(C(C)C)[C@H](C(=O)N3CC(C)(N(C)C)C3)C4)n[nH]c2c1` [Example 11, (S)-(3-(dimethylamino)-3-methylazetidin-1-yl)(2-(6-(2-ethyl-4-hydroxyphenyl)-1H-indazol-3-yl)-5-isopropyl-4,5,6,7-tetrahydro-3H-imidazo[4,5-c]pyridin-6-yl)methan One], the “JAK3 pKi” value on JAK3 is 9.9. For the same compound, the “JAK1 pKi” value at JAK1 turned out to be 10.0. In addition, the “JAK2 pKi” value on JAK2 was found to be 10.8. Moreover, the “Tyk2 pKi” value on Tyk2 stood at 9.1. Moreover, the Kp at 5 h in data set [3] was determined as 271. In addition, the concentration at 5 h in data set [3] (setting [4]) amounted to 15000 ± 3350 ng/g; in data set [3] (setting [5]) it was 55 ± 21 ng/mL. Besides, in data set [2] (setting [6]), the IC50 was 2 nM.
On to `CCCN1Cc2[nH]c(-c3n[nH]c4cc(-c5ccc(O)cc5CC)ccc34)nc2C[C@H]1C(=O)N1CC(N(C)C)C1` [Example 12, (S)-(3-(dimethylamino)azetidin-1-yl)(2-(6-(2-ethyl-4-hydroxyphenyl)-1H-indazol-3-yl)-5-propyl-4,5,6,7-tetrahydro-3H-imidazo[4,5-c]pyridin-6-yl)methan One], for which the “JAK3 pKi” value at JAK3 is on record as 10.3. Further, the “JAK1 pKi” value at JAK1 worked out at 10.5. Further, the “JAK2 pKi” value at JAK2 is 10.6. Besides, the “Tyk2 pKi” value at Tyk2 was found to be 9.0. Moreover, the Kp at 5 h in data set [3] came to 281. Further, the concentration at 5 h in data set [3] (setting [4]) was found to be 6940 ± 4250 ng/g; in data set [3] (setting [5]) it was 25 ± 9 ng/mL. Also, in data set [2] (setting [6]), the IC50 is 2 nM.
With `CCc1cc(O)ccc1-c1ccc2c(-c3nc4c([nH]3)CN(CC)[C@H](C(=O)N3CC(N(C)C)C3)C4)n[nH]c2c1` [Example 9, (S)-(3-(dimethylamino)azetidin-1-yl)(5-ethyl-2-(6-(2-ethyl-4-hydroxyphenyl)-1H-indazol-3-yl)-4,5,6,7-tetrahydro-3H-imidazo[4,5-c]pyridin-6-yl)methanone], on JAK3, the “JAK3 pKi” value is 10.3. Moreover, the “JAK1 pKi” value at JAK1 is given as 10.3. Moreover, the “JAK2 pKi” value at JAK2 turned out to be 10.7. In addition, the “Tyk2 pKi” value at Tyk2 was 9.2. In data set [3], the Kp at 5 h amounted to 339. For the same compound, the concentration at 5 h turned out to be 7750 ± 1650 ng/g in data set [3] (setting [4]) and 23 ± 6 ng/mL in data set [3] (setting [5]). Further, the IC50 in data set [2] (setting [6]) was 2 nM.
Turning to `CCc1cc(O)ccc1-c1ccc2c(-c3nc4c([nH]3)CN(CC)[C@H](C(=O)N3CC(C)(N(C)C)C3)C4)n[nH]c2c1` [Example 10, (S)-(3-(dimethylamino)-3-methylazetidin-1-yl)(5-ethyl-2-(6-(2-ethyl-4-hydroxyphenyl)-1H-indazol-3-yl)-4,5,6,7-tetrahydro-3H-imidazo[4,5-c]pyridin-6-yl)methan One], the “JAK3 pKi” value on JAK3 was determined as 10.2. Further, the “JAK1 pKi” value at JAK1 is listed as 10.4. Further, the “JAK2 pKi” value at JAK2 stood at 10.6. Further, the “Tyk2 pKi” value on Tyk2 is listed as 9.1. The Kp at 5 h in data set [3] was 216. Besides, the concentration at 5 h in data set [3] (setting [4]) turned out to be 5130 ± 2200 ng/g; in data set [3] (setting [5]), 24 ± 6 ng/mL. In addition, the IC50 in data set [2] (setting [6]) was 2.51 nM.
